Assay results taken from patent US12667547B2 (MESHABERASE, LLC, priority 2013, dated 2026).
“Also recorded” adds a separate entry of the source. Read-outs that look alike come from different tables or passages of the source.

Legend:
[1] = in vivo; cited from earlier work
[2] = General condition, body weight, serum enzymes and histology of treated tumor-bearing mice; assay type: in vivo
Procedure: (§1) Measurement of metastasis, survival and body weight of animals implanted with orthotopic pancreatic cancer in mouse model: Female nude nu/nu mice between ages 5 and 6 weeks were maintained in a barrier facility in HEPA-filtered rack. All animal studies were conducted under approved protocol #2000-06 by the CBER Institutional Animal Care and Use Committee in accordance with the principles and procedures outlined in the NIH Guideline for the Care and Use of Laboratory Animals. For orthotopic tumor cell injection, the pancreas was carefully exposed, and 2.0×10^6 of MIA-PaCa2 and H5766T cells were injected into the organ. The pancreas was then returned to the peritoneal cavity, and the abdominal wall and skin were closed with skin clips (29, 30). […] At day 30, mice were sacrificed and the number of metastatic nodules visible by naked eye and whose sizes were >5 mm in diameter counted. The total weight of primary tumor and metastatic nodules were also measured. Pictures were taken immediately after sacrificing the animals. Additionally, mouse survival time was monitored in an independent experiment. Mice were sacrificed when they had severe ascites or cachexia.
Measurement of enzymes in mouse serum: Mouse blood was collected from the tail vein. Serum levels of alanine aminotransferase (ALT), creatine kinase (CK), aldolase and creatinine (Cr) were measured using different kits obtained from Pointe Scientific, Inc. (Canton, MI) and Caldon Biotech, Inc. (Vista, Ca), following the manufacturer's instruction.
The general condition and body weight of mice throughout the experimental period was also monitored. […] Similarly, there was no alteration in serum enzymes representing liver function (ALT) or muscle damage (Aldolase) nor evidence of skeletal muscle damage or kidney function (creatinine kinase and creatinine) in the cysteamine-treated groups.

MMP-12 [3] = experiment: qRT-PCR of MMP-12 mRNA in pancreatic cancer cell lines; assay type: cell-based, human; settings: highest concentration, in vitro
Procedure: (§2) Quantitative Reverse transcription-PCR (qRT-PCR): qRT-PCR was performed as described previously using QuantiTect SYBR Green PCR Kits (QIAGEN, Valencia, CA) (28). Gene specific primers for human MMP-9, MMP-12, MMP-14 and I3-actin were either purchased from QIAGEN or synthesized at the CBER core facility. Gene expression was normalized to β-actin before the fold change in gene expression was determined.
(§3) Since MMP-9 plays a central role in pancreatic cancer invasion, MMP-9 mRNA and protein levels were examined in both cell lines.

MMP-9 [4] = experiment: ELISA of MMP-9 protein in primary orthotopic tumors; assay type: in vivo, mice; settings: tumors harvested day 30
Procedure: Enzyme-Linked ImmunoSorbent Assay (ELISA): The NIMP-9 protein level was determined using Human total MMP-9 DuoSet kit (R&D systems, Emeryville, CA) following the manufacturer's instruction. Ten microgram of total protein was aliquoted in each well and the MMP-9 concentration was determined by the colorimetric method.

MMP-9 [5] = experiment: Zymography for MMP-9 in primary orthotopic tumors; assay type: in vivo, mice; settings: tumors harvested day 30
Procedure: (§4) Briefly, 50 μg of total protein was electrophoresed on 10% SDS-PAGE containing 0.1% gelatin as substrate. After washing with 1% Triton X-100 in 50 mM Tris/HCl, pH 7.5 for 1 hr to remove SDS, the gels were incubated overnight at 37° C. in 50 mM Tris/HCl, pH 7.5, containing 150 mM NaCl, 10 mM CaCl2 and 0.1% Triton X-100, prior to staining with simply blue safe stain. The gels were washed with deionized water at room temperature. […] Relevant band intensities were quantified by scanning densitometric analysis and normalized to cell number.

MMP-14 [6] = experiment: qRT-PCR of MMP-14 mRNA in pancreatic cancer cell lines; assay type: cell-based, human; settings: highest concentration, in vitro
Procedure: as §2, §3

[7] = test system: pancreatic cancer cell lines; experiment: Matrigel invasion assay; assay type: cell-based, human
Procedure: Matrigel invasion assay: Cell invasion was assayed in BD BioCoat Matrigel invasion chambers (BD Biosciences; 24 wells, 8 μm pore size) as described previously (26). […] Non-invaded cells were removed from the upper surface of the membrane with a cotton swab, and cells on the lower surface of the membrane were fixed and stained with H&E. Three random fields per chamber were counted. Data were shown as mean±S.D. of triplicate determinations. […] For this assay, ten different pancreatic cancer cell lines in a matrigel invasion chamber were used.

intracellular cystine = settings: cited from earlier work
MMPs [8] = experiment: MMP activity in primary orthotopic tumors; assay type: in vivo, mice; settings: H5766T and MIA-PaCa2 tumors, 100 and 250 mg/Kg, day 30
Procedure: (§5) Measurement of MMP activity: MMPs activity was measured by Mca-KPLGL-Dpa-AR-NH2 Fluorogenic Peptide Substrate (R&D systems, Emeryville, CA). Total cell protein from each pancreatic cancer cell line was collected using lysis buffer (containing 50 mM Tris-HCl, 10 mM CaCl2, 0.05% Brij35 and 0.25% Triton-X) without an MMP inhibitor. Substrate and 10 μg of total cell protein in the buffer were mixed in a black-wall 96-well plate. After 1 hour incubation, fluorescence units were determined using excitation/emission=320/405 nm.

MMP-9 [9] = experiment: qRT-PCR of MMP-9 mRNA in pancreatic cancer cell lines; assay type: cell-based, human; settings: highest concentration (5 mM), both cell lines
Procedure: as §2, §3

MMP-1 = target: T1, MMP-1 (Homo sapiens, UniProt P03956); experiment: MMP profiling, IC50 (fluorimetric MMP inhibitor profiling kit); assay type: biochemical
T1 construct: purchased Enzo Life Science, Farmingdale, NY
T1 sequence (P03956 100-469): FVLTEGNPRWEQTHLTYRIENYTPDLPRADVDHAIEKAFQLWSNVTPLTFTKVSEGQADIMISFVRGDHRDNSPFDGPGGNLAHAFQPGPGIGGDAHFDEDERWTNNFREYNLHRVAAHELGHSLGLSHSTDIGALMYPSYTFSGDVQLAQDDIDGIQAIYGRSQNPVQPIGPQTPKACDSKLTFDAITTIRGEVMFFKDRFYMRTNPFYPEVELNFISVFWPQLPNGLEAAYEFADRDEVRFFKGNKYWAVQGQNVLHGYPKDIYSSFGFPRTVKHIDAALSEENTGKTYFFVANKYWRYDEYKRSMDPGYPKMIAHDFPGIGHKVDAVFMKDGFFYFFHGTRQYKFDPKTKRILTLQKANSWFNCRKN
Procedure: (§6) After administration of fluorogenic substrate, a velocity of fluorescent increase was measured using excitation/emission=320/405 nm.

MMP-14 [10] = target: T2, MMP-14 (Homo sapiens, UniProt P50281); experiment: as above; assay type: biochemical
T2 construct: purchased Enzo Life Science, Farmingdale, NY
Procedure: as §6

MMP-10 = target: T3, MMP-10 (Homo sapiens, UniProt P09238); experiment: as above; assay type: biochemical
T3 construct: purchased Enzo Life Science, Farmingdale, NY
T3 sequence (P09238 99-476): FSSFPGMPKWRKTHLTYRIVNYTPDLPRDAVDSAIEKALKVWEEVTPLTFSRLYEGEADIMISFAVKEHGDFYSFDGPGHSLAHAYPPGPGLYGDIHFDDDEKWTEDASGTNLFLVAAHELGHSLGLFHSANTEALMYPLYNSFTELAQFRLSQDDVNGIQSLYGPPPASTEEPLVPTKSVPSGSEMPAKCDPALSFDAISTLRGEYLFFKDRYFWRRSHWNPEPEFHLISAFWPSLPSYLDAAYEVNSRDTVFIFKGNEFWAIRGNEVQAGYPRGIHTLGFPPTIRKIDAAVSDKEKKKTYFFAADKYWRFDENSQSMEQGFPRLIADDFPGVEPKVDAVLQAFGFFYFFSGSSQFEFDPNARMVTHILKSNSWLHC
Procedure: as §6

MMP-13 = target: T4, MMP-13 (Homo sapiens, UniProt P45452); experiment: as above; assay type: biochemical
T4 construct: purchased Enzo Life Science, Farmingdale, NY
Procedure: as §6

MMP-7 = target: T5, MMP-7 (Homo sapiens, UniProt P09237); experiment: as above; assay type: biochemical
T5 construct: purchased Enzo Life Science, Farmingdale, NY
T5 sequence (P09237 95-267): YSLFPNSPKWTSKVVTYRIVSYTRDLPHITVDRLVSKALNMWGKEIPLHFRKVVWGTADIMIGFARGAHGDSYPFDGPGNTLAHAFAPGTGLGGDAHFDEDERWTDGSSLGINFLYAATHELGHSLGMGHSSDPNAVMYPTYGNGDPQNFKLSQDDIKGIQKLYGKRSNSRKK
Procedure: as §6

MMP-2 = target: T6, MMP-2 (Homo sapiens, UniProt P08253); experiment: as above; assay type: biochemical
T6 construct: purchased Enzo Life Science, Farmingdale, NY
T6 sequence (P08253 110-660): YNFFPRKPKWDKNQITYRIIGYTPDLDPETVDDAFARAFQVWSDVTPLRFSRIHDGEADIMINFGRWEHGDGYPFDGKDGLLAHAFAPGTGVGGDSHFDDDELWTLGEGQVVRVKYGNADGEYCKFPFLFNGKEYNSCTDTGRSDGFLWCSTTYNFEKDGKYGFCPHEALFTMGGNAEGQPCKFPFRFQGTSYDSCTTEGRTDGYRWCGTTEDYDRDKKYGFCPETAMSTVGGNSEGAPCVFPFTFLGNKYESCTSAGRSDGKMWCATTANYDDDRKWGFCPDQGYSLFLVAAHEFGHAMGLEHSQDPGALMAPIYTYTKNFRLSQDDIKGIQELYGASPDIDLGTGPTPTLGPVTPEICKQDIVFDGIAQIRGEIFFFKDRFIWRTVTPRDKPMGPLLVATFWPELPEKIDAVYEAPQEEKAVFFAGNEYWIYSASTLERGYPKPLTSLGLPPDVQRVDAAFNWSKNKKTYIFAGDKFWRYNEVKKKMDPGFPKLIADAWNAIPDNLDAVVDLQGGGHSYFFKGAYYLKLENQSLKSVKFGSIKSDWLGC
Procedure: as §6

MMP-12 [11] = target: T7, MMP-12 (Homo sapiens, UniProt P39900); experiment: as above; assay type: biochemical
T7 construct: purchased Enzo Life Science, Farmingdale, NY
T7 sequence (P39900 106-470): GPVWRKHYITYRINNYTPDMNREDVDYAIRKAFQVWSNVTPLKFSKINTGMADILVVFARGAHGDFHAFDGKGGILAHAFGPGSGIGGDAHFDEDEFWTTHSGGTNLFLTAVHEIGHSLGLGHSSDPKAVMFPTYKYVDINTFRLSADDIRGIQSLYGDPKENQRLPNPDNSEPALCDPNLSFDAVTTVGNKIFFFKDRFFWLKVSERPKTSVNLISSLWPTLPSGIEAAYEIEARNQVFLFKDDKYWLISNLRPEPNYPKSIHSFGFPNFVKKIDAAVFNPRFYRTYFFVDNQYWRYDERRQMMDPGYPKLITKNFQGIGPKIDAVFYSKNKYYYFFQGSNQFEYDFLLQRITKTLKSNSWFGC
Procedure: as §6

MMP-3 = target: T8, MMP-3 (Homo sapiens, UniProt P08254); experiment: as above; assay type: biochemical
T8 construct: purchased Enzo Life Science, Farmingdale, NY
T8 sequence (P08254 100-477): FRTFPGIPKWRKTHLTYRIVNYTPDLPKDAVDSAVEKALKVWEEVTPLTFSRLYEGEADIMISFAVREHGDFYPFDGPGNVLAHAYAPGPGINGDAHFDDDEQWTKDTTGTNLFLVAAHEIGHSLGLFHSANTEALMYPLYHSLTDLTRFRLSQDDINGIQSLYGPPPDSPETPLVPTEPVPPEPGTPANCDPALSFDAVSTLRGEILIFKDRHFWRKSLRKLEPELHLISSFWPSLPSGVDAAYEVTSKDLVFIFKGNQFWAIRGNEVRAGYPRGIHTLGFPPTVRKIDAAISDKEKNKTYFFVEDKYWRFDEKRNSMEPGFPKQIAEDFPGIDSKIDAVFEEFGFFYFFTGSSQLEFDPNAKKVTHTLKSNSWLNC
Procedure: as §6

MMP-8 = target: T9, MMP-8 (Homo sapiens, UniProt P22894); experiment: as above; assay type: biochemical
T9 construct: purchased Enzo Life Science, Farmingdale, NY
T9 sequence (P22894 101-467): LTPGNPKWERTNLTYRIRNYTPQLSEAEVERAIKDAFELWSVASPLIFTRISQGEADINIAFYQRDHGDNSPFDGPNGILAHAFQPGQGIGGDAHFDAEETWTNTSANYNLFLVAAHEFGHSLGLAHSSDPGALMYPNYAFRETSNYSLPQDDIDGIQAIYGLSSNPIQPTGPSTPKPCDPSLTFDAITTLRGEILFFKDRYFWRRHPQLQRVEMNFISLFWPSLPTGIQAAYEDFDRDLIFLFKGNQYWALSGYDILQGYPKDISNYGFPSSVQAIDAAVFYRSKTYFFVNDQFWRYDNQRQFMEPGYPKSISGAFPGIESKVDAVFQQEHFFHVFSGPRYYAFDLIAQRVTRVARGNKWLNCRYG
Procedure: as §6

MMP-9 [12] = target: T10, MMP-9 (Homo sapiens, UniProt P14780); experiment: as above; assay type: biochemical
T10 construct: purchased Enzo Life Science, Farmingdale, NY
T10 sequence (P14780 94-707): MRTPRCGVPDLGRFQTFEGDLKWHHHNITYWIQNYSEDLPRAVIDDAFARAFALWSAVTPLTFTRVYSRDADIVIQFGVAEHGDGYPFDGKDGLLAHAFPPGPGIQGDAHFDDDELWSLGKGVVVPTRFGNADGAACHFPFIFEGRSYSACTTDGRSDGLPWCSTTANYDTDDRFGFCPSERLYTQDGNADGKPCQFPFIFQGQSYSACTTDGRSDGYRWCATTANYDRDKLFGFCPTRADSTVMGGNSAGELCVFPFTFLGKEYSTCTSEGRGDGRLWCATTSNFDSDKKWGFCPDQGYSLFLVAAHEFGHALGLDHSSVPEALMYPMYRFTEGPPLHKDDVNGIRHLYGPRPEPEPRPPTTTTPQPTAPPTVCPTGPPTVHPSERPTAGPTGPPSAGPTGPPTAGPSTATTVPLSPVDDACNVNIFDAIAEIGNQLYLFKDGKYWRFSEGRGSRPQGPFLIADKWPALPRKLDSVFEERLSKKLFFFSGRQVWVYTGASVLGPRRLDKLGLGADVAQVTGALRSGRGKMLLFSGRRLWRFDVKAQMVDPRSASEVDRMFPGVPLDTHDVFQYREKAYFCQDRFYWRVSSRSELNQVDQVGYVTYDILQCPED
Procedure: as §6

MMP-9 [13] = experiment: ELISA of MMP-9 protein in pancreatic cancer cell lines; assay type: cell-based, human; settings: highest concentration (5 mM), both cell lines
Procedure: Enzyme-Linked ImmunoSorbent Assay (ELISA): The NIMP-9 protein level was determined using Human total MMP-9 DuoSet kit (R&D systems, Emeryville, CA) following the manufacturer's instruction. Ten microgram of total protein was aliquoted in each well and the MMP-9 concentration was determined by the colorimetric method. […] Since MMP-9 plays a central role in pancreatic cancer invasion, MMP-9 mRNA and protein levels were examined in both cell lines.

MMPs [14] = experiment: MMP activity in pancreatic cancer cell lines (fluorogenic peptide substrate); assay type: cell-based, human; settings: two representative cell lines, concentration-dependent
Procedure: as §5

MIA-PaCa2 tumor = experiment: Orthotopic pancreatic cancer mouse model: metastasis, ascites, survival; assay type: in vivo, mice
Procedure: as §1
(§7) At day 30, the number and weight of the primary tumor and metastatic nodules were measured. […] The survival of mice among different treatment groups was also determined.

H5766T tumor = experiment: as above; assay type: in vivo, mice
Procedure: as §1, §7

MMP-9 [15] = experiment: Gelatin gel zymography of cell lysates; assay type: cell-based, human; settings: cell lines in vitro, dose dependent
Procedure: as §4, §3

[16] = cited from earlier work
[17] = test system: pancreatic cancer cell lines; experiment: Cell migration assay (wound healing); assay type: cell-based, human
Procedure: Cell Migration Assay: Cell migration assay is a classical wound healing assay (25). For this assay, cells were cultured in 10 cm petri dishes until they were completely confluent. […] Five random fields were selected and pictures were taken using an inverted microscope. The average area (mm 2) of the gap between the cell layers was calculated using IPLab imaging software (BD Biosciences-Bioimaging, Rockville, MD). […] For the migration assay, a wound healing assay was used (described above in Example 1).

MMP-9 [18] = experiment: qRT-PCR of MMP-9 mRNA in primary orthotopic tumors; assay type: in vivo, mice; settings: tumors harvested day 30
Procedure: as §2

MMPs [19] = test system: T11, MMPs; experiment: MMP profiling, summary over the whole MMP panel; assay type: biochemical
T11 construct: rows headed: anti-MMP activity, IC50 range
Procedure: as §6, §3

MMPs [20] = test system: T12, MMPs; experiment: MMP profiling, summary over the whole MMP panel; assay type: biochemical; settings: MMP-1 to MMP-14 of Table 1; read-out: IC50 against each MMP enzymatic activity (span over the panel)
T12 construct: rows headed: IC50 against each MMP enzymatic activity (span over the panel)
Procedure: as §6, §3

MMPs [21] = settings: not tested in Table 1; cited from earlier work
[22] = higher dosage, patients with breast cancer metastasis; cited from earlier work
[23] = delivery to the small intestine (WO 2007/089670)

NCCS [Cysteamine]
adverse effects in subjects [1]: only gastrointestinal symptoms
dose tolerated without visible, biochemical or histological evidence of toxicity ([2]; mice): up to 250 mg/kg/day
organ toxicity by histological examination ([2]; mouse, in vivo): no organ toxicity
serum ALT (liver function) ([2]; mouse, in vivo): no alteration
serum Aldolase (muscle damage) ([2]; mouse, in vivo): no alteration
serum creatinine (kidney function) ([2]; mouse, in vivo): no alteration
serum creatinine kinase ([2]; mouse, in vivo): no alteration
adverse effects (general appearance, body weight, muscle damage, serum enzymes, serum creatinine) ([2]; mouse, in vivo, 250 mg/kg/day): no adverse effects
mRNA of MMP-12 (MMP-12 [3]): modest increase; also recorded: modestly upregulated
protein level of MMP-9 in primary tumors (MMP-9 [4]): did not affect
gelatinase activity, zymography for MMP-9, primary tumors (MMP-9 [5]): dose dependent decrease
mRNA of MMP-14 (MMP-14 [6]): modest increase; also recorded: modestly upregulated
lowest concentration that significantly inhibited cell invasion ([7]; all ten pancreatic cancer cell lines, 24 hours): 0.05 mM
concentration that sufficiently inhibited cancer cell invasion in vitro ([7]; discussion): 50 µM
time to decrease in leukocyte cystine (intracellular cystine; [23]): within an hour
depletion of intracellular cystine (intracellular cystine; taken regularly, circulating white blood cells): up to 90%
MMPs activity in primary orthotopic tumors (MMPs [8]): decreased
mRNA level of MMP-9 (MMP-9 [9]): modestly increased; also recorded: modestly to moderately upregulated
IC50 (MMP-1): 290 µM
IC50 (MMP-14 [10]): 91 µM
IC50 (MMP-10): 310 µM
IC50 (MMP-13): 460 µM
IC50 (MMP-7): 40 µM
IC50 (MMP-2): 38 µM
IC50 (MMP-12 [11]): 60 µM
IC50 (MMP-3): 330 µM
IC50 (MMP-8): 240 µM
IC50 (MMP-9 [12]): 200 µM
protein level of MMP-9 (MMP-9 [13]): modestly increased; also recorded: modestly to moderately upregulated
MMP activity in pancreatic cancer cell lines (MMPs [14]): inhibited
mouse survival time (MIA-PaCa2 tumor; MIA-PaCa2, 100 mg/kg/day, FIG. 1B): significantly prolonged
ascites in peritoneal cavity (MIA-PaCa2 tumor; MIA-PaCa2, 100 and 250 mg/kg/day): no mice developed ascites
number of metastatic nodules (MIA-PaCa2 tumor; MIA-PaCa2, dose-dependent, day 30): significantly decreased
decrease in total weight of metastatic nodules (MIA-PaCa2 tumor; MIA-PaCa2, highest dose (250 mg/kg/day), day 30): ~90%
size and weight of the primary tumor vs control (MIA-PaCa2 tumor; MIA-PaCa2, s.c. twice daily from day 4, day 30): did not show any difference
mouse survival time (H5766T tumor; 100 mg/kg/day, FIG. 1A): significantly prolonged
decrease in number of metastases (H5766T tumor; 250 mg/kg/day s.c., day 30): ~90%
number of metastases (H5766T tumor; 250 mg/kg/day s.c., day 30 (control 34)): 3.6
ascites in peritoneal cavity (H5766T tumor; 100 and 250 mg/kg/day): no mice developed ascites
number of metastatic nodules (H5766T tumor; dose-dependent, day 30): significantly decreased
size and weight of the primary tumor vs control (H5766T tumor; s.c. twice daily from day 4, day 30): did not show any difference
zymographic gelatin hydrolyzing activity, pro and active MMP-9 (MMP-9 [15]): decreased significantly; also recorded: dose dependent decrease
AUC [16, 23]: increases AUC
cysteamine plasma level ([16]; oral, every 6 hours, 60 to 90 mg/kg of body weight per day): ≤ 50 µM
concentration at which cell migration was significantly inhibited ([17]; all ten cell lines, 24 hours): ≥ 0.05 mM
concentration that sufficiently inhibited cancer cell migration in vitro ([17]; discussion): 50 µM
mRNA level of MMP-9 in primary tumors (MMP-9 [18]): did not affect
anti-MMP activity, IC50 range (MMPs [19]): high μM range
IC50 (MMPs [20]): 38 to 460 µM

CNC(=O)[C@@H](NC(=O)[C@H](CC(C)C)[C@H](O)C(=O)NO)C(C)(C)C [marimastat]
anti-MMP activity, IC50 range (MMPs [21]): nM to low μM
clinical toxicity [22]: high musculoskeletal toxicities
